Peptide text beside a SMILES is read from it. * marks the point of attachment. Cbz = O=C(OCc1ccccc1)*

For data set [1], the target named is T1, Top2b (Homo sapiens, UniProt Q02880).
T1 construct: endogenous in cells; host or cells: U2OS
The data set can be described thus: Immunoblot of Top2b in U2OS cells treated with Dex and/or MG132. The class given is cell-based. The method, then:
(§1) FIG. 10. […] U2OS cells were treated with 100 mM Dex and/or 10 mM MG132, a proteosome inhibitor, for 2, 4, or 6 hours. Cell lysates were immunoblotted with anti-Top2a, Top2b, or actin antibodies.
(§2) The effect of Dex treatment of Top2a levels was also tested. Briefly, U2OS cells were treated with 100 mM Dex and/or 10 mM MG132 (a proteosome inhibitor) for 2, 4, or 6 hours. Cell lysates were immunoblotted with anti-Top2a, Top2b, or actin antibodies.
Background: Immunoblotting shows a protein as a band on a membrane.

The test system of data set [2] is mouse heart. Description: Cardiac MRI for measuring cardiac function after chronic doxorubicin.
Description: Before Cre induction, cardiac MRI scan was performed on each mouse to examine the baseline ejection fraction. Cardiomyocyte-specific Cre induction was carried out by treating mice with tamoxifen. […] Doxorubicin treatment (5 mg/kg, i.p., once a week for 5 weeks) was started 7 days after the second MRI scan. Two weeks after the last dose of doxorubicin, a third MRI scan was performed (FIG. 6a).
Every mouse in the EF experiments received 3 MRI scans, i.e., a baseline scan, a second scan 2 weeks after the end of tamoxifen treatment, and a third scan 2 weeks after the last dose of doxorubicin. […] Mice were anesthetized with isoflurane (2.5% in 97.5% O2), and scanned on a 7.0 T Biospec small animal scanner (Bruker Biospin Inc., Billerica, Mass.). Imaging gradients with 60 mm inner diameter (ID) were used with a 35 mm ID linear birdcage-style volume resonator. T1-weighted anatomic reference images were acquired using a three dimension (3D) fast low-angle shot (FLASH) gradient echo sequence. A retrospectively gated FLASH pulse sequence was used to acquire cardiac cine images with excellent contrast between bright blood and adjacent myocardium. To measure volumetric left ventricular ejection fraction (LVEF), at least 6 short axis images were scanned at 1 mm interval from the apex to the base of the heart. End-diastolic (ED) and end-systolic (ES) left ventricular volumes were obtained by the biplane area length method, and LVEF was calculated with the equation: [(ED-ES)/ED]/100.
Two weeks after completion of tamoxifen treatment mice were treated with doxorubicin or drug vehicle. Two cohorts of mice were treated with different schedules. […] To evaluate the chronic effect of doxorubicin on cardiac function, doxorubicin (5 mg/kg, i.p.) was administered once a week for 5 weeks, and cardiac function was examined 2 weeks after the last dose of doxorubicin by using MRI.
The effect of chronic doxorubicin treatment (5 mg/kg, ip, once a week for 5 weeks) was evaluated for its effect on ejection fraction.
Data set [3] concerns heart sections. The data set can be described thus: Detection of apoptosis in heart sections (TUNEL assay). It counts as in vivo, mouse. Particulars: dexrazoxane 100 mg/kg ip 8 hrs prior to doxorubicin 25 mg/kg ip; hearts 16 hrs after doxorubicin. How it is done: Apoptosis was detected by using TUNEL assay on heart sections. Heart harvest, sectioning, and storage were described above. Heart sections were warmed to room temperature before the apoptotic nuclei were stained by using a commercially available kit (In Situ Cell Death Detection Kit, Cat. No. 12156792910, Roche Applied Science). The entire staining procedures were performed according to the manufacturer's instructions. The nuclei were stained with DAPI (Sigma) before the slides were sealed and examined with an Olympus epifluorescence microscope (Model BX51). The apoptotic nuclei and the total nuclei per heart section were counted at 200× magnification. The apoptotic nuclei in 5 heart sections of each mouse were counted and averaged.
The cardio-protective effect of Dex against doxirubin-induced apoptosis was assessed in heart tissues. Dexrazoxane (100 mg/kg) was injected (ip) 8 hrs prior to doxorubicin (25 mg/kg) injection (ip). One group received only doxorubicin and a second group received only dexrazoxane. Hearts were harvested 16 hrs after doxorubicin treatment. The numbers of TUNEL-positive nuclei were counted in five fields in each heart section.

Data set [4] has as its target T2, Top2a (Homo sapiens, UniProt P11388).
T2 construct: endogenous in cells; host or cells: U2OS
The data set can be described thus: Immunoblot of Top2a in U2OS cells treated with Dex and/or MG132. It counts as cell-based. Particulars: 100 mM Dex for 2, 4, or 6 hours. How it is done: as §1, §2

Data set [5] relates to DNA double strand breaks in the heart. Description: Detection of DNA double strand breaks (γ-H2AX staining) in heart sections. The class given is in vivo, mouse. The following applies: dexrazoxane 100 mg/kg ip 8 hrs prior to doxorubicin 25 mg/kg; hearts 16 hr after doxorubicin. The method, then:
After mice were sacrificed, hearts were perfused with ice-cold PBS, quickly removed, embedded in OCT compound (Fisher Scientific), and snap-frozen in liquid nitrogen. The heart was sectioned to 5 μm-thick slices using a cryostat. Heart sections were stored at −80° C. until immunofluorescence staining was performed. Heart sections were rinsed with PBS at room temperature, fixed in BD Cytofix/Cytoperm solution (BD Biosciences) for 15 m, washed in PBS, and permeabilized in BD Perm/Wash solution for 30 m. Heart sections were first blocked with BSA (2 mg/ml) for 30 m, then incubated with an mouse monoclonal anti-γ-H2AX antibody conjugated with Alexa Fluor 555 (Clone N1-431, BD Biosciences) for 1 h. Nuclei were stained with DAPI (Sigma, 1 μg/ml PBS), and the slides were sealed for examination with an Olympus epifluorescence microscope (Model BX51). To quantify DSBs, the numbers of γ-H2AX-positive nuclei and the total nuclei were counted in 5 microscopic fields (400×) per section. For each mouse, five heart sections were counted to determine the percentage of γ-H2AX-positive nuclei.
To further confirm the cardio-protective effect of Dex, DNA double strand breaks were assessed in heart tissues. Dexrazoxane (100 mg/kg) was injected (ip) 8 hrs prior to doxorubicin (25 mg/kg) treatment. Hearts were harvested 16 hr after doxorubicin treatment. The percentage of γH2AX-positive nuclei was counted in 5 fields (400×) in each heart section. Five sections were counted in each heart to determine the average percentage of γH2AX-positive nuclei.

Data set [6] has as its target T3, Top2b (Mus musculus, UniProt Q64511).
T3 construct: Frozen tissues were homogenized in lysis buffer and sonicated to extract proteins for western blotting; from tissue; host or cells: mouse heart
Description: Western blot of Top2b protein levels in heart tissue after dexrazoxane. The class given is in vivo. Particulars: dexrazoxane 100 mg/kg i.p. How it is done:
Expression of Top2b was examined in the hearts of mice. After sacrifice, the heart was quickly removed and homogenized immediately in lysis buffer. After homogenization, the lysate was sonicated at 4° C. and an aliquot was removed for protein concentration measurement. The lysate was stored at −80° C. for western blot analysis. 20 μg of lysate proteins were electrophoresed and transferred to PVDF membranes. Blots were blocked with 5% non-fat dry milk, and incubated overnight at 4° C. with anti-Top2b antibody (Abcam). To detect mitochondrial proteins, the mitochondria were isolated from cardiomyocytes. The cardiomyocytes were isolated with a Langendorff perfusion system according to a published protocol3. Briefly, heart was removed and rinsed with ice-cold PBS twice before connecting to a Langendorff apparatus through the aorta. The heart was perfused first with perfusion buffer for 3 m at 37° C. (3 ml/min), then digestion buffer (enzyme-containing) buffer at 37° C. for 8-10 m. The heart was disintegrated manually and the tissue/cells were separated by using forceps. The tissue/cell suspension was incubated for another 3-5 m in digestion buffer, then triturate the cells gently using a 1 ml pipette before adding stopping buffer. After purification by centrifugation the mitochondria were isolated from the cardiomyocytes with a kit (Cat. No. MS853, Mitosciences) for separating mitochondria from nuclei and cytosol. The isolated mitochondria were homogenized in lysis buffer and sonicated before being stored at −80° C. until use. 20 μg of lysate proteins were electrophoresed and transferred to PVDF membranes. Blots were blocked incubated overnight at 4° C. with anti-Ndufa3 (Sigma), anti-Atp5a (Abcam) or anti-Sdha antibodies (Abcam). After incubation with HRP-conjugated secondary antibodies for 40 m at room temperature, the blots were detected with a luminol-based detection kit (ECL, GE Health Care).
To test the effect of dexrazoxane (Dex) on Top2b protein levels, mice were treated with dexrazoxane (100 mg/kg, i.p.). At different time points following treatment hearts were removed under anesthesia and perfused with PBS to remove blood. Each heart was cut into 10 pieces and snap-frozen in liquid nitrogen. Frozen tissues were homogenized in lysis buffer and sonicated to extract proteins for western blotting.

T3 sequence (Q64511 2-1612 limits assumed): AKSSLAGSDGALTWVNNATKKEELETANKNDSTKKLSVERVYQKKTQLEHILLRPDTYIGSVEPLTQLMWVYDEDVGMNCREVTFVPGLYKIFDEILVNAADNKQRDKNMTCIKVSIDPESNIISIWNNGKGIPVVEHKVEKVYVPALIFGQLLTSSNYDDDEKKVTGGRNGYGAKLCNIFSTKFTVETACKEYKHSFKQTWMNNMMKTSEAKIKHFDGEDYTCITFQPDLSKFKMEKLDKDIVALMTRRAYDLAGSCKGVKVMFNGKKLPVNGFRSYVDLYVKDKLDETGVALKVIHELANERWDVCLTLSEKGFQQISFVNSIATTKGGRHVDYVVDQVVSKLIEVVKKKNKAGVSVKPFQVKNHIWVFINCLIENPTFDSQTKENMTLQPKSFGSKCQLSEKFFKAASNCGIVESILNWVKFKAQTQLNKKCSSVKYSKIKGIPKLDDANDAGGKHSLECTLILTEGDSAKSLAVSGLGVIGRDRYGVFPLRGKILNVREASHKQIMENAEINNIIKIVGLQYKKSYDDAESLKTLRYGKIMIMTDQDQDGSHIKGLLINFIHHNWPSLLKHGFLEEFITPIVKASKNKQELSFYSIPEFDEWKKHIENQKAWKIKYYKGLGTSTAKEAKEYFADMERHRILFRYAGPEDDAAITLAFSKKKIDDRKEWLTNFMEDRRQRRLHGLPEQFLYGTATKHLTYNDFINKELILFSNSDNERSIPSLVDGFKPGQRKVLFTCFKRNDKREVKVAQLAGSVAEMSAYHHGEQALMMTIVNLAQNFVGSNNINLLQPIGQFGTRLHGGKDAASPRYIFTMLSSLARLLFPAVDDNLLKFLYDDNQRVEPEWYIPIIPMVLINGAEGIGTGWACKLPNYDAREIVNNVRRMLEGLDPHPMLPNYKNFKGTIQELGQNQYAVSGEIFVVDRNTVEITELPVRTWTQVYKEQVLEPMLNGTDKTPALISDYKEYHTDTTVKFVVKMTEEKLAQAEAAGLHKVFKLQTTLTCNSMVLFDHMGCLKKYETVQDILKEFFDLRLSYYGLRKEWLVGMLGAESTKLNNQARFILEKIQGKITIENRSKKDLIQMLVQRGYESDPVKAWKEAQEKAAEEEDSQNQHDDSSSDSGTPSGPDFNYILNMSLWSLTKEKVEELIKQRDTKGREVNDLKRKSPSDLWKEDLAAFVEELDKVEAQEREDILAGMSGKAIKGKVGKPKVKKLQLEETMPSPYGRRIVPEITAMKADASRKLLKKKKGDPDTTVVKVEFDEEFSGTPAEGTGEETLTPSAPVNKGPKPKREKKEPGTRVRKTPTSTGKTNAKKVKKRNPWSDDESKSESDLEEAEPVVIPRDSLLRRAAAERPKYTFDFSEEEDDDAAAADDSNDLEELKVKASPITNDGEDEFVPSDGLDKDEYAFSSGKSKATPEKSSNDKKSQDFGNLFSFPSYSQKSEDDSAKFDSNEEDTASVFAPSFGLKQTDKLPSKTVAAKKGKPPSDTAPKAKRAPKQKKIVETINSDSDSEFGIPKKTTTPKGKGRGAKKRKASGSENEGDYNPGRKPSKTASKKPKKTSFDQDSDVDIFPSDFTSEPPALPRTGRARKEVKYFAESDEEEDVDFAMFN
T1 sequence (Q02880 2-1626 limits assumed): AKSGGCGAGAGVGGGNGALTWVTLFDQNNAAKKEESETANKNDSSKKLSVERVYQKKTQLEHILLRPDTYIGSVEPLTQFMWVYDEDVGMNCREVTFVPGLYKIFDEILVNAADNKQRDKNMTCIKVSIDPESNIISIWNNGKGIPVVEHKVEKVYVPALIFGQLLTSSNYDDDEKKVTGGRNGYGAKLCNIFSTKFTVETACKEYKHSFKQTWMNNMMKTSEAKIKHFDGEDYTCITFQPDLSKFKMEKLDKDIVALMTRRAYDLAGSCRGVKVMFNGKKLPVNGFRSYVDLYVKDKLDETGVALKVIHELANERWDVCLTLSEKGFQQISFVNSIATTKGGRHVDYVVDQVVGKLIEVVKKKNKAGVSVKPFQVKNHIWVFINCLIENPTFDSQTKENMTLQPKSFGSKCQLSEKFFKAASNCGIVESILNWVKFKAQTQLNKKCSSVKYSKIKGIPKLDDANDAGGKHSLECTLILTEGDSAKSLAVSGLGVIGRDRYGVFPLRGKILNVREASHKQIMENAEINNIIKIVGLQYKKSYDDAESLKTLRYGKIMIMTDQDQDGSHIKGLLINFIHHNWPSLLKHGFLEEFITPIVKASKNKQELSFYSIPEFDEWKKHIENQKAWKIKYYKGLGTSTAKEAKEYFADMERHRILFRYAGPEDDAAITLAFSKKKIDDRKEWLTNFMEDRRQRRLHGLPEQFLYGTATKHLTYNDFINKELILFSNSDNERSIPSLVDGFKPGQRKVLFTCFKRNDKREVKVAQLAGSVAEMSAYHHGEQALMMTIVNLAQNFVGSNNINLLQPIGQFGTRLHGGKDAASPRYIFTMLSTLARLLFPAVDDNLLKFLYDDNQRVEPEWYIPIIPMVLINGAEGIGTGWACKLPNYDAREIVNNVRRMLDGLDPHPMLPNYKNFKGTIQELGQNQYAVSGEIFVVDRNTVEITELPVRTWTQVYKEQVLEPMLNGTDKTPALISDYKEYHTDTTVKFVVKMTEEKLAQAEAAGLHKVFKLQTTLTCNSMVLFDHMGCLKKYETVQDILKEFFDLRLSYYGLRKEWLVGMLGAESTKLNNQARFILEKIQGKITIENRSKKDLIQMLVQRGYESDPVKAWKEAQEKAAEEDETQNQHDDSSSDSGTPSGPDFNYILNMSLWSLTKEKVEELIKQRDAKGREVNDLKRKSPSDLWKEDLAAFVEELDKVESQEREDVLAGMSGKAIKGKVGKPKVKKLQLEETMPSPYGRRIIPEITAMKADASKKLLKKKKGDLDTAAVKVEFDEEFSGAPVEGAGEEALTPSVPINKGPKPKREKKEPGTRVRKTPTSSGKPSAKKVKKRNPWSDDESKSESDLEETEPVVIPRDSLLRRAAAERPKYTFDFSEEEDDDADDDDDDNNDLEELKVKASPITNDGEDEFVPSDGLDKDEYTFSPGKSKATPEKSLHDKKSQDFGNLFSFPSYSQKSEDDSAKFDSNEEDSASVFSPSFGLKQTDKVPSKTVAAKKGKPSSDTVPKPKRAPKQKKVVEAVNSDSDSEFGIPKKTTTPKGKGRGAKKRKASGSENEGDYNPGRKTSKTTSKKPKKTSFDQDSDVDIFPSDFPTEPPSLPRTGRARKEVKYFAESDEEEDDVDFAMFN
T2 sequence (P11388 whole entry): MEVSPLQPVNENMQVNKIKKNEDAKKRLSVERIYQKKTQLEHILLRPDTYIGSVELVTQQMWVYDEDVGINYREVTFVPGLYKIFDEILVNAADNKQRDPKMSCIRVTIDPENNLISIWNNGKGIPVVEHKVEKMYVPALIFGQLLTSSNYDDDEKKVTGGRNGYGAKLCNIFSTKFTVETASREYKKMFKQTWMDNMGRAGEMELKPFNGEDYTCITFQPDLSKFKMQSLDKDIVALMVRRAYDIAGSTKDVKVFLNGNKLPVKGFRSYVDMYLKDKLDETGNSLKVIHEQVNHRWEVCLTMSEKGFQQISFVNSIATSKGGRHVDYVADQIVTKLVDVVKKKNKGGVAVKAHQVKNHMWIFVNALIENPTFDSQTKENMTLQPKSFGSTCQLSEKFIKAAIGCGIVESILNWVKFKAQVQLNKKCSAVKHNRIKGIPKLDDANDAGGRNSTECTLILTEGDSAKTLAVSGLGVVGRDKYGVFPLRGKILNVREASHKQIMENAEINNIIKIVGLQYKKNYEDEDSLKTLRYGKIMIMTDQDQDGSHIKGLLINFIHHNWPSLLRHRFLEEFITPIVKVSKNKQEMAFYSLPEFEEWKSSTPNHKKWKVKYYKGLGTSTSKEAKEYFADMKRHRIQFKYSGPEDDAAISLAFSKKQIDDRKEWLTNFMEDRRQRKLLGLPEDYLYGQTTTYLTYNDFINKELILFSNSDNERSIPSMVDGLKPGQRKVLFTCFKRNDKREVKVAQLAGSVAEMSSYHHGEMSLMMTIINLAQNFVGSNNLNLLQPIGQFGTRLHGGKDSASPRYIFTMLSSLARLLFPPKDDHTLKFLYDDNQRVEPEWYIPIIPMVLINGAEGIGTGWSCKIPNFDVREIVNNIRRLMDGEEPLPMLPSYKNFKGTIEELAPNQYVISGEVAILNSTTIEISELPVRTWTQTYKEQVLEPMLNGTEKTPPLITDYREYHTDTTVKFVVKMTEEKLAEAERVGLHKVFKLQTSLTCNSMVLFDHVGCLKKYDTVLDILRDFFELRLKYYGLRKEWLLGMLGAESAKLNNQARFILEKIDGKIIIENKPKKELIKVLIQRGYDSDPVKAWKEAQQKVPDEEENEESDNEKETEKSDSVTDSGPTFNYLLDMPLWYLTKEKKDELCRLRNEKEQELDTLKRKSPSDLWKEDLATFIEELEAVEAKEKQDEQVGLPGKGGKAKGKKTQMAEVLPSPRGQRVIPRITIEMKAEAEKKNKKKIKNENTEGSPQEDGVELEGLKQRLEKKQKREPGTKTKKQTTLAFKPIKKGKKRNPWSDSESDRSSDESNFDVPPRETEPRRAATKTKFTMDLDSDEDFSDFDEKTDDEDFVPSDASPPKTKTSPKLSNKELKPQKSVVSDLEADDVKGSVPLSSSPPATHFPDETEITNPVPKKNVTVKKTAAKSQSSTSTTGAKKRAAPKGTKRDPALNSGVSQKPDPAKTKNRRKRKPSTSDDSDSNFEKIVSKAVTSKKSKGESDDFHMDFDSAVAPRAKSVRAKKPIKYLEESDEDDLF

Regarding `CC(C)C[C@@H](C=O)NC(=O)[C@H](CC(C)C)NC(=O)[C@H](CC(C)C)NC(=O)OCc1ccccc1` [MG132] (Cbz-Leu-Leu-Leu-aldehyde), in data set [1] (10 mM MG132 with 100 mM Dex, 2, 4, or 6 hours), the “Effect on Dex-mediated Top2b degradation” value is “inhibited”.
For the molecule `CC/C(=C(\c1ccccc1)c1ccc(OCCN(C)C)cc1)c1ccccc1` [Tamoxifen, tamoxifen], in data set [2] (tamoxifen 25 mg/kg gavage once a day for 5 days, all three Top2b genotype groups), the “Effect on ejection fractions” value is recorded as “did not significantly affect”.
Regarding `C[C@@H](CN1CC(=O)NC(=O)C1)N1CC(=O)NC(=O)C1` [dexrazoxane], the “Degradation of Top2b” value in data set [1] (100 mM Dex for 2, 4, or 6 hours) is on record as “caused degradation of Top2b”. In addition, the “Protection against doxorubicin-induced apoptosis in the heart (TUNEL-positive nuclei)” value in data set [3] was “protects against doxorubicin-induced apoptosis”. Moreover, the “Degradation of Top2a” value in data set [4] was “but not Top2a”. Also, the “Ejection fraction, Dex in combination with doxorubicin” value in data set [2] (dexrazoxane 100 mg/kg ip 8 hrs prior to doxorubicin 5 mg/kg ip once a week for 5 weeks) is “unchanged”. The “Ejection fraction, Dex alone” value in data set [2] (mice, dexrazoxane 100 mg/kg ip alone) is listed as “unchanged”. Further, in data set [5], the “Protection against doxorubicin-induced DNA double strand breaks in the heart (γH2AX-positive nuclei)” value was “protects against doxorubicin-induced DNA double strand breaks”. Besides, in data set [6], the “Time point at which Top2b levels begin to recover” value came to 12 h. The “Top2b protein level in the heart at 6 hours” value in data set [6] (6 hours after therapy) is recorded as “nearly undetectable”. Also, the “Top2b protein level in the heart at 24 hours” value in data set [6] (24 hours) is “still noticeably reduced”. Besides, the “Top2b protein levels in the heart” value in data set [6] (time course) is “greatly reduced”.

(Values after US9169509B2, “Topoisomerase 2b as a predictor of susceptibility to anthracycline-induced cardiotoxicity” (Board of Regents, The University of Texas System, priority 2013, dated 2015).)
